For the test, the target named is E3 ubiquitin-protein ligase CBL-B (Homo sapiens) (UniProt Q13191). Kind of test: Inhibition of CBLB (unknown origin) using biotinylated ubiquitin as substrate at 20 uM incubated for 1 hr by microplate analysis.

Among the data in ChEMBL document CHEMBL5360593, “Rare Caulamidine Hexacyclic Alkaloids from the Marine Ascidian Polyandrocarpa sp” (J Nat Prod, 2023) are inhibition values, retold here.

The source made the active and inactive calls. The calls are words filed in the database; no cut-off is given here.

Sequence of E3 ubiquitin-protein ligase CBL-B (Homo sapiens) (Q13191 whole entry): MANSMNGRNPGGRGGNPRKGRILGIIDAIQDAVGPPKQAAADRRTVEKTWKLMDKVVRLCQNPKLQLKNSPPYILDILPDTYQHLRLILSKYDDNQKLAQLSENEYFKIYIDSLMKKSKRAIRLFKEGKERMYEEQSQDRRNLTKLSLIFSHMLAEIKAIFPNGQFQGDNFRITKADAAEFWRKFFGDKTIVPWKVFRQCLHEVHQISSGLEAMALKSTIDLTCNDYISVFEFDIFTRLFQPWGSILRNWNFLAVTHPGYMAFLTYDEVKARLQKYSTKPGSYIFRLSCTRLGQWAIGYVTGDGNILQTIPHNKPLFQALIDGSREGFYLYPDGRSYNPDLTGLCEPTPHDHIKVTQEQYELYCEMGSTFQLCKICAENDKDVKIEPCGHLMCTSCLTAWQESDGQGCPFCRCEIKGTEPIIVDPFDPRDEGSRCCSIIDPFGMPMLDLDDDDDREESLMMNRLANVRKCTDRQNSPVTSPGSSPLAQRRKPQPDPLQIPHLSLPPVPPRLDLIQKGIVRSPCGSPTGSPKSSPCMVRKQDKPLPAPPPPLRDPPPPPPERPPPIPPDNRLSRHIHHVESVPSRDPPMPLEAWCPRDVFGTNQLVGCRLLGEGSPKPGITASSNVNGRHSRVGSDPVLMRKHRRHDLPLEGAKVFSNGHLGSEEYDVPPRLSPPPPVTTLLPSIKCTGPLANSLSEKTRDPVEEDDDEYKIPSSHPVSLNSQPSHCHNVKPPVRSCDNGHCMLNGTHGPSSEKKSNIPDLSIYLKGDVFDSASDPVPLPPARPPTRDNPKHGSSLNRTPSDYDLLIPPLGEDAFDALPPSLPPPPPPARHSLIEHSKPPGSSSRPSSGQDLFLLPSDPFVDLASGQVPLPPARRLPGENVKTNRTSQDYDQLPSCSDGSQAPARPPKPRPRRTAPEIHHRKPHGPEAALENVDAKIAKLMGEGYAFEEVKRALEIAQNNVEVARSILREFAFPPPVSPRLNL

For the molecule `CN1CC[C@]23Cc4ccc(Br)cc4N(C)C2=NC[C@@H](Cl)[C@]32C1=Nc1cc(Br)ccc12`, the inhibition result is “inactive”.

Consider `CN1C[C@H](Cl)[C@]23Cc4ccc(Br)cc4N(C)C2=NC[C@@H](Cl)[C@]32C1=Nc1ccccc12`, for which the inhibition result is “inactive”.

Regarding `CN1C[C@@H](Cl)[C@@]23C(=Nc4ccccc42)N(C)CC[C@@]32Cc3ccc(Br)cc3N=C12`, the inhibition entry was “inactive”.

On to `CN1C[C@@H](Cl)[C@@]23C(=Nc4ccccc42)N(C)C[C@H](Cl)[C@@]32Cc3ccc(Br)cc3N=C12`, for which the inhibition result is “inactive”.

For `CN1CC[C@]23Cc4ccc(Br)cc4N(C)C2=NC[C@@H](Cl)[C@]32C1=Nc1ccccc12`, the inhibition entry is “inactive”.

For `CN1C[C@@H](Cl)[C@@]23C(=Nc4cc(Br)ccc42)N(C)CC[C@@]32Cc3ccc(Br)cc3N=C12`, the inhibition entry is “inactive”.
